Where a name gives a salt, the structure may show the parent alone.
Molecular target: T1, epithelial sodium channel (ENaC) (Homo sapiens, UniProt P37088+P51168+P51170)
T1 construct: host or cells: primary human bronchial epithelial cells (HBECs), differentiated at air-liquid interface
T1 sequence (P37088 1-669): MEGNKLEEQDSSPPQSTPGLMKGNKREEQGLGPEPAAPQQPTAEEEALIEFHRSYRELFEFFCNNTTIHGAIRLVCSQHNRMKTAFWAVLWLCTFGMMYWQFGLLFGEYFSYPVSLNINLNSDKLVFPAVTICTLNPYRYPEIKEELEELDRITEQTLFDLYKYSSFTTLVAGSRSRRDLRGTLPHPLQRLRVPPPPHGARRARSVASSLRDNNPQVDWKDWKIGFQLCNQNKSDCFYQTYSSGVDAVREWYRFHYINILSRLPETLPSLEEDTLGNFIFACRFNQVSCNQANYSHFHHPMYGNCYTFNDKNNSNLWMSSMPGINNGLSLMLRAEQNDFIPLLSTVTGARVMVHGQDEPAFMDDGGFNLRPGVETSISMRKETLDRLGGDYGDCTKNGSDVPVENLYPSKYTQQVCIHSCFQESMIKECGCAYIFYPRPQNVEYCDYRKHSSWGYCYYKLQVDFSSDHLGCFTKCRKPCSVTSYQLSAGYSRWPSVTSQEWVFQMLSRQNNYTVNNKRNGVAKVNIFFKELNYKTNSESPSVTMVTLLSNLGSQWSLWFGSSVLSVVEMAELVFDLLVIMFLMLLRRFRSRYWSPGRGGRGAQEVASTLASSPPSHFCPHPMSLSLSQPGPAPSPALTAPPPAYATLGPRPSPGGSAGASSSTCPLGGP
T1 sequence (P51168 1-640): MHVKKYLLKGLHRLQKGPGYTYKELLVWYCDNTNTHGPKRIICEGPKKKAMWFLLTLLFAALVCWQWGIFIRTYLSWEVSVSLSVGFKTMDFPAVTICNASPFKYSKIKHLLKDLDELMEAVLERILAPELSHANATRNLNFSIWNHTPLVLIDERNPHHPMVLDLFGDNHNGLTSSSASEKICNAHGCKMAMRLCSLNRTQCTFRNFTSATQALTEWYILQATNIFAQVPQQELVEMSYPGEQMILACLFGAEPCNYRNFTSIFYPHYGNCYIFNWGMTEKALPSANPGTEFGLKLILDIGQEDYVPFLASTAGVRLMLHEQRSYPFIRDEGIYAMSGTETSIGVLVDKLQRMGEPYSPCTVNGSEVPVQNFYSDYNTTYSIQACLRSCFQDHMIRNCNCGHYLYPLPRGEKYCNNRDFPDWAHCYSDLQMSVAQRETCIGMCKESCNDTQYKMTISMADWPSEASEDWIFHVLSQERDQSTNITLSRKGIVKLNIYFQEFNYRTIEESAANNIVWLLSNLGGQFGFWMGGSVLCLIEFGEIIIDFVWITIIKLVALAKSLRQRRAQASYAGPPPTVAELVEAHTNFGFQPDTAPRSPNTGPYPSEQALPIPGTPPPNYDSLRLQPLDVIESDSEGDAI
T1 sequence (P51170 1-649): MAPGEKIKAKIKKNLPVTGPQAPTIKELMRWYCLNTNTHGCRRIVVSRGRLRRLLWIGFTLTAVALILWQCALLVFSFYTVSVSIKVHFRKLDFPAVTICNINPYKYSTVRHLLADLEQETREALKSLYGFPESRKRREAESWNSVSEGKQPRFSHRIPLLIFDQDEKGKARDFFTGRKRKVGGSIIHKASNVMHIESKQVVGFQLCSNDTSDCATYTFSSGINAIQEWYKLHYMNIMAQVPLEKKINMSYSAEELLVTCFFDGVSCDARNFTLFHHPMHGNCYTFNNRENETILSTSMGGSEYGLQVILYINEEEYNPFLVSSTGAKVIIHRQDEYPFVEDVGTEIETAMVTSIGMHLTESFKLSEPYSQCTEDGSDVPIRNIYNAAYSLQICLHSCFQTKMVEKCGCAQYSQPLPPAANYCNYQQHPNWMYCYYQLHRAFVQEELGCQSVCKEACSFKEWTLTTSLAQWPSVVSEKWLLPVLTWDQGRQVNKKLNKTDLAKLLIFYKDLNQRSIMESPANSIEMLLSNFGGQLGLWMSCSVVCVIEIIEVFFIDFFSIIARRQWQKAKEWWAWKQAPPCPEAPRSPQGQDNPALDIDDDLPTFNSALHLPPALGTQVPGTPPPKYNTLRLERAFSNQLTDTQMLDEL
Assay: Short circuit current (ISC) measurements in Human Bronchial Epithelial cells
Format: cell-based
Details: HBECs at air-liquid interface, Ussing chamber, apical addition; read-out: IC50 (inhibition of the amiloride-sensitive ISC)
Procedure: Human Bronchial Epithelial cells (HBECs) (Cambrex) were cultured under air-liquid interface conditions to provide a well differentiated mucociliary phenotype.
HBECs were cultured using a modification of the method described by Gray and colleagues
(Gray et al., 1996). Cells were seeded in plastic T-162 flasks and were grown in bronchial epithelial cell growth medium (BEGM; Cambrex) supplemented with bovine pituitary extract (52 μg/mL), hydrocortisone (0.5 μg/mL), human recombinant epidermal growth factor ([…]), epinephrine (0.5 μg/mL), transferrin (10 μg/mL), insulin (5 μg/mL), retinoic acid (0.1 μg/mL), triiodothyronine ([…]), gentamycin (50 μg/mL) and amphotericin B (50 μg/mL). Medium was changed every 48 hours until cells were 90% confluent. Cells were then passaged and seeded (8.25×10^5 cells/insert) on polycarbonate Snapwell inserts (Costar) in differentiation media containing 50% DMEM in BEGM with the same supplements as above but without triiodothyronine and a final retinoic acid concentration of 50 nM (all-trans retinoic acid). Cells were maintained submerged for the first 7 days in culture, after which time they were exposed to an apical air interface for the remainder of the culture period. At this time, media was changed to DMEM:F12 media containing 2% v/v Ultroser G for the remainder of culture. Amphotericin B was removed from all media 3 feeds prior to use in the Ussing Chambers. Cells were used between days 7 and 21 after establishment of the apical-air interface. At all stages of culture, cells were maintained at 37° C. in 5% CO2 in an air incubator.
Snapwell inserts were mounted in Vertical Diffusion Chambers (Costar) and were bathed with continuously gassed Ringer solution (5% CO2 in O2; pH 7.4) maintained at 37° C. containing (in mM): 120 NaCl, 25 NaHCO3, 3.3 KH2PO4, 0.8 K2HPO4, 1.2 CaCl2, 1.2 MgCl2, and 10 glucose. The solution osmolarity was between 280 and 300 mOsmol/kg H2O for all physiological salt solutions used. Cells were voltage clamped to 0 mV (model EVC4000; WPI). RT was measured by applying a 1- or 2-mV pulse at 30-s intervals and calculating RT by Ohm's law. Data were recorded using a PowerLab workstation (ADInstruments).
Test compounds were prepared as a 10 mM stock solution in DMSO (95%). Serial 3-fold dilutions were freshly prepared in an appropriate vehicle (distilled H2O or Ringers solution). […] At the completion of the concentration-response experiment, amiloride (10 μM) was added into the apical chamber to enable the total amiloride-sensitive current to be measured. […]
Results are expressed as the mean % inhibition of the amiloride-sensitive ISC. […] Cell inserts were typically run in duplicate and the IC50 calculated on the mean % inhibition data.

IC50 | SMILES
33 nM | COC(=O)[C@H](CCCCNC(=N)NC(=O)c1nc(Cl)c(N)nc1N)NS(=O)(=O)c1ccc(C)cc1 [Example 17, (S)-6-[N′-(3,5-Diamino-6-chloro-pyrazine-2-carbonyl)-guanidino]-2-(toluene-4 sulfonylamino)-hexanoic acid methyl ester trifluoroacetate]
16.4 nM | N=C(NCCCCCCNS(=O)(=O)c1cccc2ccccc12)NC(=O)c1nc(Cl)c(N)nc1N [Example 3]
18 nM | N=C(NCCCCNC(=O)Cc1ccccc1)NC(=O)c1nc(Cl)c(N)nc1N [Example 25]

SMILES | IC50
N=C(NCCCC(=O)N(Cc1ccccc1)[C@H]1CC2CC[C@H](C1)N2Cc1ccccc1)NC(=O)c1nc(Cl)c(N)nc1N [Example 12] | 65.9 nM

— patent US20080312212A1, “Organic Compounds” (Novartis AG, priority 2005, published 2008)
